Data reported in PubChem BioAssay AID1259407 (Chemical Carcinogenesis Research Information System (CCRIS), 2018).
Activity calls are given as the source filed them. How the calls were made is not given here.

Test system: CCRIS mutagenicity, Ames/micronucleus/aberration tests
Assay: CCRIS mutagenicity studies
[1] = Test System: AMES SALMONELLA TYPHIMURIUM, Strain/Indicator: TA100, Metabolic Activation: NONE, Method: STANDARD PLATE
[2] = Test System: Mouse lymphoma, Strain/Indicator: L5178Y (tk+/tk-), Metabolic Activation: None, Method: Suspension/plate
[3] = Test System: Mouse lymphoma, Strain/Indicator: L5178Y (tk+/tk-), Metabolic Activation: Rat, Liver, S-9, Aroclor 1254, Method: Suspension/plate
[4] = Test System: AMES SALMONELLA TYPHIMURIUM, Strain/Indicator: TA98, Metabolic Activation: NONE, Method: PREINCUBATION
[5] = Test System: AMES SALMONELLA TYPHIMURIUM, Strain/Indicator: TA100, Metabolic Activation: NONE, Method: PREINCUBATION
[6] = Test System: AMES SALMONELLA TYPHIMURIUM, Strain/Indicator: TA1535, Metabolic Activation: NONE, Method: PREINCUBATION

Compound: CC1(C)CC(O)CC(C)(C)N1[O]
- mutagenic call [1]: active; positive
- mutagenic call (Test System: AMES SALMONELLA TYPHIMURIUM, Strain/Indicator: TA102, Metabolic Activation: NONE, Method: STANDARD PLATE): inactive; negative
- mutagenic call (Test System: AMES SALMONELLA TYPHIMURIUM, Strain/Indicator: TA102, Metabolic Activation: XANTHINE OXIDASE, Method: STANDARD PLATE): inactive; negative
- mutagenic call (Test System: AMES SALMONELLA TYPHIMURIUM, Strain/Indicator: TA104, Metabolic Activation: NONE, Method: STANDARD PLATE): inactive; negative
- mutagenic call (Test System: AMES SALMONELLA TYPHIMURIUM, Strain/Indicator: TA104, Metabolic Activation: XANTHINE OXIDASE, Method: STANDARD PLATE): inactive; negative
- mutagenic call [2]: active; positive
- mutagenic call [3]: active; positive

Compound: O=C/C=C/C=C\c1ccc([N+](=O)[O-])cc1
- mutagenic call (Test System: AMES SALMONELLA TYPHIMURIUM, Strain/Indicator: 98(NR), Metabolic Activation: HAMSTER, LIVER, S-9, AROCLOR 1254, Method: STANDARD PLATE): active; positive
- mutagenic call (Test System: AMES SALMONELLA TYPHIMURIUM, Strain/Indicator: 98(NR), Metabolic Activation: NONE, Method: STANDARD PLATE): active; positive
- mutagenic call (Test System: AMES SALMONELLA TYPHIMURIUM, Strain/Indicator: 98(NR), Metabolic Activation: RAT, LIVER, S-9, AROCLOR 1254, Method: STANDARD PLATE): active; positive
- mutagenic call (Test System: AMES SALMONELLA TYPHIMURIUM, Strain/Indicator: 100(NR), Metabolic Activation: HAMSTER, LIVER, S-9, AROCLOR 1254, Method: STANDARD PLATE): active; positive
- mutagenic call (Test System: AMES SALMONELLA TYPHIMURIUM, Strain/Indicator: 100(NR), Metabolic Activation: NONE, Method: STANDARD PLATE): active; positive
- mutagenic call (Test System: AMES SALMONELLA TYPHIMURIUM, Strain/Indicator: 100(NR), Metabolic Activation: RAT, LIVER, S-9, AROCLOR 1254, Method: STANDARD PLATE): active; positive
- mutagenic call (Test System: AMES SALMONELLA TYPHIMURIUM, Strain/Indicator: TA98, Metabolic Activation: HAMSTER, LIVER, S-9, AROCLOR 1254, Method: STANDARD PLATE): active; positive
- mutagenic call (Test System: AMES SALMONELLA TYPHIMURIUM, Strain/Indicator: TA98, Metabolic Activation: NONE, Method: STANDARD PLATE): active; positive
- mutagenic call (Test System: AMES SALMONELLA TYPHIMURIUM, Strain/Indicator: TA98, Metabolic Activation: RAT, LIVER, S-9, AROCLOR 1254, Method: STANDARD PLATE): active; positive
- mutagenic call (Test System: AMES SALMONELLA TYPHIMURIUM, Strain/Indicator: TA100, Metabolic Activation: HAMSTER, LIVER, S-9, AROCLOR 1254, Method: STANDARD PLATE): active; positive
- mutagenic call [1]: active; positive
- mutagenic call (Test System: AMES SALMONELLA TYPHIMURIUM, Strain/Indicator: TA100, Metabolic Activation: RAT, LIVER, S-9, AROCLOR 1254, Method: STANDARD PLATE): active; positive
- mutagenic call (Test System: AMES SALMONELLA TYPHIMURIUM, Strain/Indicator: TA1535, Metabolic Activation: HAMSTER, LIVER, S-9, AROCLOR 1254, Method: STANDARD PLATE): active; positive
- mutagenic call (Test System: AMES SALMONELLA TYPHIMURIUM, Strain/Indicator: TA1535, Metabolic Activation: NONE, Method: STANDARD PLATE): active; positive
- mutagenic call (Test System: AMES SALMONELLA TYPHIMURIUM, Strain/Indicator: TA1535, Metabolic Activation: RAT, LIVER, S-9, AROCLOR 1254, Method: STANDARD PLATE): active; positive
- mutagenic call (Test System: AMES SALMONELLA TYPHIMURIUM, Strain/Indicator: TA1537, Metabolic Activation: NONE, Method: STANDARD PLATE): active; positive
- mutagenic call (Test System: AMES SALMONELLA TYPHIMURIUM, Strain/Indicator: TA1537, Metabolic Activation: RAT, LIVER, S-9, AROCLOR 1254, Method: STANDARD PLATE): active; positive
- mutagenic call [2]: active; equivocal (previous evaluation positive)
- mutagenic call [3]: inactive; negative

Compound: CCC[CH2][Sn]([CH2]CCC)([CH2]CCC)[O][Sn]([CH2]CCC)([CH2]CCC)[CH2]CCC
- mutagenic call (Test System: AMES SALMONELLA TYPHIMURIUM, Strain/Indicator: TA97, Metabolic Activation: HAMSTER, LIVER, S-9, AROCLOR 1254 (10 OR 30%), Method: PREINCUBATION): inactive; negative
- mutagenic call (Test System: AMES SALMONELLA TYPHIMURIUM, Strain/Indicator: TA97, Metabolic Activation: NONE, Method: PREINCUBATION): inactive; negative
- mutagenic call (Test System: AMES SALMONELLA TYPHIMURIUM, Strain/Indicator: TA97, Metabolic Activation: RAT, LIVER, S-9, AROCLOR 1254 (10 OR 30%), Method: PREINCUBATION): inactive; negative
- mutagenic call (Test System: AMES SALMONELLA TYPHIMURIUM, Strain/Indicator: TA98, Metabolic Activation: HAMSTER, LIVER, S-9, AROCLOR 1254 (10 OR 30%), Method: PREINCUBATION): inactive; negative
- mutagenic call [4]: inactive; negative
- mutagenic call (Test System: AMES SALMONELLA TYPHIMURIUM, Strain/Indicator: TA98, Metabolic Activation: NONE, Method: SUSPENSION/PLATE): inactive; negative
- mutagenic call (Test System: AMES SALMONELLA TYPHIMURIUM, Strain/Indicator: TA98, Metabolic Activation: RAT, LIVER, S-9, AROCLOR 1254 (10 OR 30%), Method: PREINCUBATION): inactive; negative
- mutagenic call (Test System: AMES SALMONELLA TYPHIMURIUM, Strain/Indicator: TA100, Metabolic Activation: HAMSTER, LIVER, S-9, AROCLOR 1254 (10 OR 30%), Method: PREINCUBATION): inactive; negative
- mutagenic call [5]: inactive; negative
- mutagenic call (Test System: AMES SALMONELLA TYPHIMURIUM, Strain/Indicator: TA100, Metabolic Activation: NONE, Method: SUSPENSION/PLATE): inactive; negative
- mutagenic call (Test System: AMES SALMONELLA TYPHIMURIUM, Strain/Indicator: TA100, Metabolic Activation: RAT, LIVER, S-9, AROCLOR 1254 (10 OR 30%), Method: PREINCUBATION): inactive; negative
- mutagenic call (Test System: AMES SALMONELLA TYPHIMURIUM, Strain/Indicator: TA1535, Metabolic Activation: HAMSTER, LIVER, S-9, AROCLOR 1254 (10 OR 30%), Method: PREINCUBATION): inactive; negative
- mutagenic call [6]: inactive; negative
- mutagenic call (Test System: AMES SALMONELLA TYPHIMURIUM, Strain/Indicator: TA1535, Metabolic Activation: RAT, LIVER, S-9, AROCLOR 1254 (10 OR 30%), Method: PREINCUBATION): inactive; negative

Compound: CC(C)CCC[C@@H](C)[C@H]1CC[C@H]2[C@@H]3CC=C4C[C@@H](OC(=O)Cc5ccc(N(CCCl)CCCl)cc5)CC[C@]4(C)[C@H]3CC[C@]12C
- mutagenic call (Test System: AMES SALMONELLA TYPHIMURIUM, Strain/Indicator: TA98, Metabolic Activation: HAMSTER, LIVER, S-9, AROCLOR 1254 (10%), Method: PREINCUBATION): inactive; negative
- mutagenic call [4]: inactive; negative
- mutagenic call (Test System: AMES SALMONELLA TYPHIMURIUM, Strain/Indicator: TA98, Metabolic Activation: RAT, LIVER, S-9, AROCLOR 1254 (10%), Method: PREINCUBATION): inactive; negative
- mutagenic call (Test System: AMES SALMONELLA TYPHIMURIUM, Strain/Indicator: TA100, Metabolic Activation: HAMSTER, LIVER, S-9, AROCLOR 1254 (10%), Method: PREINCUBATION): inactive; negative
- mutagenic call [5]: inactive; negative
- mutagenic call (Test System: AMES SALMONELLA TYPHIMURIUM, Strain/Indicator: TA100, Metabolic Activation: RAT, LIVER, S-9, AROCLOR 1254 (10%), Method: PREINCUBATION): inactive; negative
- mutagenic call (Test System: AMES SALMONELLA TYPHIMURIUM, Strain/Indicator: TA1535, Metabolic Activation: HAMSTER, LIVER, S-9, AROCLOR 1254 (10%), Method: PREINCUBATION): inactive; negative
- mutagenic call [6]: inactive; negative
- mutagenic call (Test System: AMES SALMONELLA TYPHIMURIUM, Strain/Indicator: TA1535, Metabolic Activation: RAT, LIVER, S-9, AROCLOR 1254 (10%), Method: PREINCUBATION): inactive; negative
- mutagenic call (Test System: AMES SALMONELLA TYPHIMURIUM, Strain/Indicator: TA1537, Metabolic Activation: HAMSTER, LIVER, S-9, AROCLOR 1254 (10%), Method: PREINCUBATION): inactive; negative
- mutagenic call (Test System: AMES SALMONELLA TYPHIMURIUM, Strain/Indicator: TA1537, Metabolic Activation: NONE, Method: PREINCUBATION): inactive; negative
- mutagenic call (Test System: AMES SALMONELLA TYPHIMURIUM, Strain/Indicator: TA1537, Metabolic Activation: RAT, LIVER, S-9, AROCLOR 1254 (10%), Method: PREINCUBATION): inactive; negative

Compound: O=C1OC2(c3cc(Br)c(O)c(Br)c3Oc3c2cc(Br)c(O)c3Br)c2c(Cl)ccc(Cl)c21
- mutagenic call (End Point: IN VIVO MICRONUCLEUS, Test System: BONE MARROW POLYCHROMATIC ERYTHROCYTES, Species: MOUSE, Strain/Sex: DDY/MALE, Route: IP): inactive; negative
